39 molecules from ChEMBL document CHEMBL3507680, “University of Dundee, Gates Library screen for HepG2 cell viability” can be followed below.

The nature of the data set: Human HepG2 cell viability assay in 384 well format. Also noted: dose 125 nL, time 70.5 hour; cytotoxicity at 70.5 h: concentration not given beside the values. The conditions noted are these: HepG2 cells, read-out: Inhibition. The format is toxicity, cell-based.
Turning to `COc1ccccc1C(C)CNC(=O)c1[nH]ncc1Br` (centres undefined), the cytotoxicity at 70.5 h came out at 3.61%. Then `O=C(c1ccc(F)cc1)N1C[C@H]2CCC[C@@]2(COCc2ccccn2)C1`, with -15.6%; and `CCCc1ncc(CNC2(c3ccc(Cl)cc3)CCC2)cn1`, with -4.55%.

Turning to `N#Cc1cc(Br)ccc1NC1CCN(CC(N)=O)CC1`, the cytotoxicity at 70.5 h was -2.02%. Then `CC(O)CCN(C)C(=O)Nc1ccc(Br)cc1` (centres undefined), with 26.9%; and `CC1CCCCN1CCN(C)C(=O)c1cc(CN2CCC(O)CC2)on1` (centres undefined), with -0.898%. Next, `O=c1c(CN2CCCCCC2)coc(O)c1CN1CCOCC1`: -2.1%; `O=C(C1CCC1)N1C(CN2CCOCC2)[C@]2(O)CC[C@H]1CC2` (some centres undefined): 13.5%. Then `Cc1n[nH]c(C)c1-c1c(C#N)c(N)nc2c1CCc1[nH]ccc1-2`, with -3.53%; and `N#Cc1nccnc1N1CCC(COCc2ccccc2)C1` (centres undefined), with -4.27%. Consider `O=C(Nc1ccccc1)c1nn(C2CCS(=O)(=O)C2)c2c1CCCC2` (centres undefined), for which the cytotoxicity at 70.5 h was -11.3%.

Turning to `CC(C)c1nnc(CN2CCc3ccc(S(N)(=O)=O)cc32)o1`, the cytotoxicity at 70.5 h is -0.0777%. As for `CCC(=O)NCC(=O)N(C)C(c1ccc(Cl)cc1)c1cccnc1` (centres undefined), the cytotoxicity at 70.5 h is -1.51%. `c1cn(CCNc2nc(NC3CC3)nc3c2CCNCC3)nn1`: the cytotoxicity at 70.5 h is -14.7%. On to `N#Cc1cccc(NC2CC(=O)N(CCc3ccc(F)cc3)C2)n1` (centres undefined), for which the cytotoxicity at 70.5 h came to 28.1%. Next, `Cc1noc(COCC(=O)Nc2cc(C)c(Br)cn2)n1`: 4.04%; `CN(Cc1ccccn1)C(=O)CC1CCOc2ccccc21` (centres undefined): -8.29%; `CCOc1cc(=O)n2c(c1C(=O)OCc1cccc(C)c1)CCCC2`: -11.3%.

Consider `Cc1cc(CN2CCCCC2Cn2cncn2)no1` (centres undefined), for which the cytotoxicity at 70.5 h is -12.8%. Next, `CN(C)c1cc2c(nn1)CCN(C(=O)C1CCc3ccccc31)C2` (centres undefined): 13.5%; `COc1ccc(C2CCCN2C(=O)Nc2ccc(OC)nc2)cc1` (centres undefined): -7.84%; `O=C1CN(C(=O)C2CCCCC2)CC(O)CN1Cc1ccc(Cl)cc1` (centres undefined): -5.09%. Next, `Cc1nc(C)n(CC2CCCN2Cc2nc(-c3ccccn3)no2)n1` (centres undefined): -7.25%. Next, `COc1ccc(S(=O)(=O)C2CCN(C(=O)c3cc(C)cs3)CC2)cc1`: 1.95%; `CC(Cn1cc(Br)cn1)C(=O)Nc1ccc(Cl)cn1` (centres undefined): 4.53%; `CC(=O)c1cnc(NCCN2CCCC(c3ccccc3)C2)nc1C` (centres undefined): 14.2%. With `COCCN1CCN(CCCc2nnnn2-c2ccccc2)CC1`, the cytotoxicity at 70.5 h was -14.2%. Next, `CCc1nnc2n1CCN(C(=O)CN(C)Cc1ccccc1)C2`: -4.4%. Next, `Cn1cc(-c2cnc(-c3ccnn3C)nc2)cc1C(=O)N1CCCC1`: -4.76%. Next, `CCc1csc(C2CCCN(C(=O)c3cc(Cl)c[nH]3)C2)n1` (centres undefined): 2.15%; `CN(C)Cc1nc(C(C)(C)NC(=O)c2cccc3ccccc23)no1`: -7.53%. Consider `C[C@@H](NC(=O)c1cccnc1)c1onc(-c2ccccc2)c1C(=O)O`, for which the cytotoxicity at 70.5 h is -4.96%. Then `COc1cccc(OC)c1C(C(=O)O)N(C)Cc1c(C)n[nH]c1C` (centres undefined), with -14.8%; and `CC(C)CNC(=O)CNc1c(NCc2ccccn2)c(=O)c1=O`, with 2.45%; and `O=C(Cc1ccc2c(c1)OCO2)N1CCCN(c2ccccc2)CC1`, with -4.44%. For `CC(C)=CCCC1(C)CCC(=O)N(CCc2nc(N)cc(O)n2)C1` (centres undefined), the cytotoxicity at 70.5 h was -6.54%. Next, `COc1ccc(-c2cc(C3CC3)c(C#N)c(N)n2)cc1F`: 11.2%; `Cc1ncnc2c1CCN(C(=O)c1cccc(F)c1)CC2`: -5.99%; `COC1CCCN(Cc2cc(O)c3cc(C)cc(C)c3n2)C1` (centres undefined): -2.68%.
